Values after ≈ are worked out from the molar mass of the structure shown.

The experiment relates to Mycobacterium tuberculosis. As to the kind of experiment: Antitubercular activity against multidrug-resistant Mycobacterium tuberculosis. It counts as functional.
For the molecule `O=[N+]([O-])C1CN2C[C@H](OCc3ccc(OC(F)(F)F)cc3)COC2=N1` (stereo partly drawn), the MIC was in the range of 0.039 to 0.531 µg/mL (≈ 0.108 to 1.47 µM).
For `[O-]/[N+](O)=C1/CN2C[C@H](OCc3ccc(OC(F)(F)F)cc3)COC2=N1`, the MIC was 0.039 to 0.531 µg/mL (≈ 0.108 to 1.47 µM).
With `FC(F)(F)Oc1ccc(CO[C@@H]2COc3nccn3C2)cc1`, the minimum inhibitory concentration (MIC) lay in the range of 0.039 to 0.531 µg/mL (≈ 0.124 to 1.69 µM).

Source of the values: ChEMBL document CHEMBL4316582, “Nitro-Group-Containing Drugs” (J Med Chem, 2019).
